According to US5856356A, “Use of strontium salts and pharmaceutical compositions thereof for the treatment of arthrosis” (Adir et Compagnie, priority 1996, dated 1999):

Tested on: human chondrocytes

SMILES: [Cl-].[Cl-].[Sr+2] [SrCl2, strontium chloride]
- production of sulfated glycoseaminoglycans (24 hours, concentration printed "210^-3 M", control 43 871 ± 1124, p < 0.05): 52 839 c.p.m./10^6 cells
- effect on the synthesis of proteoglycans / stimulation of the chondroformation (in words) (human chondrocytes, same effects as compound A): exhibits the same effects
